In US7528138B2, “Pyrazolo[1,5-a]pyrimidines useful as inhibitors of protein kinases” (Vertex Pharmaceuticals Incorporated, priority 2004, dated 2009):

Columns and labels:
Itk = molecular target: T1, Itk (Homo sapiens, UniProt Q08881); assay: ITK Inhibition Assay (Radiometric), radioactive-phosphate incorporation; assay type: biochemical; details: enzyme inhibition data (Ki), Table 11; radiometric or UV assay not stated
T1 sequence (Q08881 1-620): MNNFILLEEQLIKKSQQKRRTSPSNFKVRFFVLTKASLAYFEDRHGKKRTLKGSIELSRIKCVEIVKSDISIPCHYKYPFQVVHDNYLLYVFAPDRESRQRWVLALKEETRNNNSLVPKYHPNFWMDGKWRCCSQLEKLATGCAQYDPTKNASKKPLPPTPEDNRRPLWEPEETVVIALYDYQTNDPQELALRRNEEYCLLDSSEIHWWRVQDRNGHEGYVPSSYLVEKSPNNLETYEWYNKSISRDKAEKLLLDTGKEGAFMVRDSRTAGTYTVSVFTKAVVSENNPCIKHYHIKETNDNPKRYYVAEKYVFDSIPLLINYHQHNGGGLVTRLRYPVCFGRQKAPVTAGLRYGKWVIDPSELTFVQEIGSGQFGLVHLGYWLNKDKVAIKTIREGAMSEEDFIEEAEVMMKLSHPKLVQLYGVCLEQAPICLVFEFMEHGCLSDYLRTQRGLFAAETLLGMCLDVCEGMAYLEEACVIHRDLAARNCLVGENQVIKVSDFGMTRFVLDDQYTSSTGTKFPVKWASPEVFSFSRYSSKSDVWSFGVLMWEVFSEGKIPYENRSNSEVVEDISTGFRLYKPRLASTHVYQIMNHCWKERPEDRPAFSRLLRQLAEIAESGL
Method in brief: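 Radiometric 33P incorporation into SAM68 peptide (D332-443) with filter capture and scintillation counting; 10 min pre-incubation then 10 min reaction at 25° C. IC50 format: 30 nM Itk, 15 μM ATP, 2 μM peptide, HEPES pH 7.5. Ki(app) format: 50 nM Itk, 7.5 μM ATP, 3 μM peptide, MOPS pH 7.0.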

Aurora-2 = molecular target: T2, Aurora-2 (Homo sapiens, UniProt O14965); assay: Aurora-A (Aurora-2) Inhibition Assay, coupled enzyme assay; assay type: biochemical; details: enzyme inhibition data (Ki), Table 11; read-out: AurA Ki
T2 sequence (O14965 1-403): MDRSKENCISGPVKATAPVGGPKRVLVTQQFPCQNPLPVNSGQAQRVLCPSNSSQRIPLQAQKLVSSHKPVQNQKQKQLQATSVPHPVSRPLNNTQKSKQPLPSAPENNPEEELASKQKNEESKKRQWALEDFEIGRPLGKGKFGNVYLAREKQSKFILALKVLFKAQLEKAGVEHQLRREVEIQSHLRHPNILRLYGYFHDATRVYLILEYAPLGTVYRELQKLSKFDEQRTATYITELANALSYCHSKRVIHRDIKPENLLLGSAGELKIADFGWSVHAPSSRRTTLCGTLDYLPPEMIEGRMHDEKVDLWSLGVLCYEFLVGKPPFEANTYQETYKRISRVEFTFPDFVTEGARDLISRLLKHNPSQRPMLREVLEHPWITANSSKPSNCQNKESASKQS
Procedure: Compounds are screened for their ability to inhibit Aurora-2 using a standard coupled enzyme assay (Fox et al., Protein Sci., (1998) 7, 2249). Assays are carried out in a mixture of 100 mM Hepes (pH7.5), 10 mM MgCl2, 1 mM DTT, 25 mM NaCl, 2.5 mM phosphoenolpyruvate, 300 μM NADH, 30 μg/ml pyruvate kinase and 10 μg/ml lactate dehydrogenase. Final substrate concentrations in the assay are 400 μM ATP (Sigma Chemicals) and 570 μM peptide (Kemptide, American Peptide, Sunnyvale, Calif.). Assays are carried out at 30° C. and in the presence of 40 nM Aurora-2.
An assay stock buffer solution is prepared containing all of the reagents listed above, with the exception of Aurora-2 and the test compound of interest. 55 μl of the stock solution is placed in a 96 well plate followed by addition of 2 μl of DMSO stock containing serial dilutions of the test compound (typically starting from a final concentration of 7.5 μM). The plate is preincubated for 10 minutes at 30° C. and the reaction initiated by addition of 10 μl of Aurora-2. Initial reaction rates are determined with a Molecular Devices SpectraMax Plus plate reader over a 10 minute time course. IC50 and Ki data are calculated from non-linear regression analysis using the Prism software package (GraphPad Prism version 3.0cx for Macintosh, GraphPad Software, San Diego Calif., USA).

Structure (SMILES)	Ki (Itk)	Ki (Aurora-2)
NC1NN2C=C(c3cccc(CN4CC[C@@H](N)C4)c3)C=NC2=C1c1ccccn1 (stereo partly drawn) [Compound V-226]	< 500 nM	500 to 5000 nM
C#CCN(C)C(=O)c1cccc(-c2cnc3c(-c4ccccn4)c(N)nn3c2)n1 [Compound V-106]	500 to 5000 nM	500 to 5000 nM
COCCNc1ccc(-c2cnc3c(-c4ccccn4)c(N)nn3c2)cn1 [Compound V-156]	500 to 5000 nM	500 to 5000 nM
Cc1ccc(-c2c(N)nn3cc(-c4ccncc4)cnc23)nc1 [Compound V-132]	500 to 5000 nM	500 to 5000 nM
COc1ccc(-c2cn3nc(N)c(-c4ccccn4)c3nc2C)cc1 [Compound V-216]	500 to 5000 nM	500 to 5000 nM
NCc1ccc(-c2cnc3c(-c4ccccn4)c(N)nn3c2)cc1 [Compound V-195]	< 500 nM	< 500 nM
Nc1nn2cc(-c3ccc4[nH]ccc4c3)cnc2c1-c1ccccn1 [Compound V-212]	< 500 nM	< 500 nM
Nc1nn2cc(-c3ccc(CO)cc3)cnc2c1-c1ccccn1 [Compound V-194]	< 500 nM	< 500 nM
CNc1cc(-c2c(N)nn3cc(-c4ccncc4)cnc23)ncn1 [Compound V-181]	< 500 nM	< 500 nM
CNCc1ccc(-c2cnc3c(-c4ccccn4)c(N)nn3c2)cc1 [Compound V-236]	< 500 nM	< 500 nM
Nc1nn2cc(-c3cccc(N4CCNCC4)c3)cnc2c1-c1ccccn1 [Compound V-222]	< 500 nM	< 500 nM
Nc1nn2cc(-c3ccc(CN4CCOCC4)cc3)cnc2c1-c1ccccn1 [Compound V-208]	< 500 nM	< 500 nM
CN(CCC#N)C(=O)c1cccc(-c2cnc3c(-c4ccccn4)c(N)nn3c2)n1 [Compound V-114]	500 to 5000 nM	500 to 5000 nM
CNCCN(C)C(=O)c1cccc(-c2cnc3c(-c4ccccn4)c(N)nn3c2)c1 [Compound V-189]	< 500 nM	500 to 5000 nM
COCCCN1CCN(C(=O)c2ccc(-c3cnc4c(-c5ccccn5)c(N)nn4c3)nc2)CC1 [Compound V-129]	< 500 nM	< 500 nM
CCN(CC)C(=O)c1cccc(-c2cnc3c(-c4ccccn4)c(N)nn3c2)n1 [Compound V-127]	500 to 5000 nM	500 to 5000 nM
Nc1nn2cc(-c3ccc(CNC4CCNCC4)cc3)cnc2c1-c1ccccn1 [Compound V-232]	< 500 nM	500 to 5000 nM
CCN(CC)C(=O)c1ccc(-c2cnc3c(-c4ccccn4)c(N)nn3c2)nc1 [Compound V-98]	< 500 nM	< 500 nM
CC(C)Nc1cc(-c2c(N)nn3cc(-c4ccncc4)cnc23)ncn1 [Compound V-182]	< 500 nM	< 500 nM
Nc1nn2cc(-c3ccc(N4CCC(N)CC4)nc3)cnc2c1-c1ccccn1 [Compound V-165]	< 500 nM	< 500 nM
Nc1nn2cc(-c3cccc(C(=O)N4CCC[C@@H]4CN4CCCC4)n3)cnc2c1-c1ccccn1 [Compound V-175]	500 to 5000 nM	500 to 5000 nM
NC1NN2C=C(c3cccc(CN4CCCNCC4)c3)C=NC2=C1c1ccccn1 (stereo not drawn) [Compound V-228]	< 500 nM	500 to 5000 nM
CN1CCC(N(C)C(=O)c2cccc(-c3cnc4c(-c5ccccn5)c(N)nn4c3)n2)CC1 [Compound V-101]	500 to 5000 nM	500 to 5000 nM
Nc1nn2cc(-c3cccc(CO)c3)cnc2c1-c1ccccn1 [Compound V-221]	500 to 5000 nM	500 to 5000 nM
CC(C)CN(C)c1cc(-c2c(N)nn3cc(-c4ccncc4)cnc23)ncn1 [Compound V-243]	< 500 nM	< 500 nM
Nc1nn2cc(-c3ccc(N4CCC[C@@H]4CN4CCCC4)nc3)cnc2c1-c1ccccn1 [Compound V-176]	< 500 nM	500 to 5000 nM

Structure (SMILES)	Ki (Itk)	Ki (Aurora-2)
COC(=O)C1CCCN1C(=O)c1cccc(-c2cnc3c(-c4ccccn4)c(N)nn3c2)n1 (stereo not drawn) [Compound V-139]	500 to 5000 nM	500 to 5000 nM
CNC(=O)c1cnc2c(-c3ccccn3)c(N)nn2c1 [Compound V-204]	500 to 5000 nM	500 to 5000 nM
Nc1nn2cc(-c3ccncc3)cnc2c1-c1cc(NC2CCCCC2)ncn1 [Compound V-183]	< 500 nM	< 500 nM
Nc1nn2cc(-c3ccncc3)cnc2c1-c1cc(Nc2ccccc2)ncn1 [Compound V-241]	< 500 nM	< 500 nM
CCN(CC)CCN(C)C(=O)c1cccc(-c2cnc3c(-c4ccccn4)c(N)nn3c2)n1 [Compound V-124]	500 to 5000 nM	500 to 5000 nM
CC(C)CNc1cc(-c2c(N)nn3cc(-c4ccncc4)cnc23)ncn1 [Compound V-185]	< 500 nM	< 500 nM
CC(C)N1CCN(c2ccc(-c3cnc4c(-c5ccccn5)c(N)nn4c3)cn2)CC1 [Compound V-146]	< 500 nM	500 to 5000 nM
CCN(CC)c1cc(-c2c(N)nn3cc(-c4ccncc4)cnc23)ncn1 [Compound V-180]	< 500 nM	< 500 nM
Nc1nn2cc(C#CCO)cnc2c1-c1ccccn1 [Compound V-238]	500 to 5000 nM	500 to 5000 nM
CNCCCN(C)C(=O)c1cccc(-c2cnc3c(-c4ccccn4)c(N)nn3c2)c1 [Compound V-190]	< 500 nM	500 to 5000 nM
Nc1nn2cc(-c3ccncc3)cnc2c1-c1cc(NCC2CCCCC2)ncn1 [Compound V-184]	< 500 nM	< 500 nM
CN1CCCN(c2ccc(-c3cnc4c(-c5ccccn5)c(N)nn4c3)cn2)CC1 [Compound V-160]	500 to 5000 nM	500 to 5000 nM
Nc1nn2cc(-c3cccc(C(=O)N4CCC(N)CC4)n3)cnc2c1-c1ccccn1 [Compound V-104]	500 to 5000 nM	500 to 5000 nM
CN(CCCN)C(=O)c1ccc(-c2cnc3c(-c4ccccn4)c(N)nn3c2)nc1 [Compound V-130]	< 500 nM	500 to 5000 nM
Nc1nn2cc(-c3cccc(CN4CCOCC4)c3)cnc2c1-c1ccccn1 [Compound V-225]	500 to 5000 nM	500 to 5000 nM
NC1NN2C=C(c3cccc(CN4CC[C@H](N)C4)c3)C=NC2=C1c1ccccn1 (stereo partly drawn) [Compound V-227]	< 500 nM	500 to 5000 nM
CN(C)Cc1cccc(-c2cnc3c(-c4ccccn4)c(N)nn3c2)c1 [Compound V-215]	< 500 nM	500 to 5000 nM
COc1ccccc1-c1cnc2c(-c3ccccn3)c(N)nn2c1 [Compound V-14]	500 to 5000 nM	500 to 5000 nM
Nc1nn2cc(-c3cccc(CN4CCNCC4)c3)cnc2c1-c1ccccn1 [Compound V-223]	< 500 nM	500 to 5000 nM
Nc1nn2cc(-c3ccncc3)cnc2c1-c1cc(N2CCCCC2)ncn1 [Compound V-179]	< 500 nM	< 500 nM
CCN1CCN(C(=O)c2cccc(-c3cnc4c(-c5ccccn5)c(N)nn4c3)n2)CC1 [Compound V-102]	500 to 5000 nM	500 to 5000 nM
CN(C)Cc1ccc(-c2cnc3c(-c4ccccn4)c(N)nn3c2)cc1 [Compound V-214]	< 500 nM	< 500 nM
Nc1nn2cc(-c3ccc(C(=O)N4CCC[C@H]4CN4CCCC4)cn3)cnc2c1-c1ccccn1 [Compound V-177]	< 500 nM	< 500 nM
CN(C)CCNc1ccc(-c2cnc3c(-c4ccccn4)c(N)nn3c2)cn1 [Compound V-159]	< 500 nM	500 to 5000 nM
Nc1nn2cc(-c3ccc(CN4CCC(N)CC4)cc3)cnc2c1-c1ccccn1 [Compound V-234]	< 500 nM	< 500 nM
